Data from patent US12077503B2, “Substituted cyclic amides and their use as herbicides” (FMC CORPORATION, priority 2015, dated 2024).

Legend:
Assay type in all cases: in vivo
[1] = system: Kochia (Kochia scoparia); assay: Test A preemergence
How it was run: (§1)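 Seeded soil received test chemicals as a preemergence directed spray, and seedlings at one to two leaves, 2–10 cm tall, received them postemergence, in a non-phytotoxic, surfactant-containing solvent mixture. Pots were held in a greenhouse for approximately 10 d, then rated for injury from 0, no effect, to 100, complete control.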

[2] = system: barnyardgrass (Echinochloa crus-galli); assay: Test A preemergence
How it was run: as §1

[3] = system: giant foxtail (Setaria faberii); assay: Test A preemergence
How it was run: as §1

[4] = system: pigweed (Amaranthus retroflexus); assay: Test A preemergence
[5] = system: ragweed (common ragweed, Ambrosia elatior); assay: Test A preemergence
How it was run: as §1

[6] = system: ryegrass, Italian (Italian ryegrass, Lolium multiflorum); assay: Test A preemergence
How it was run: as §1

[7] = system: Galium (catchweed bedstraw, Galium aparine); assay: Test A postemergence; details: postemergence
How it was run: as §1

[8] = system: Kochia (Kochia scoparia); assay: Test A postemergence; details: postemergence
How it was run: as §1

[9] = system: barnyardgrass (Echinochloa crus-galli); assay: Test A postemergence; details: postemergence
How it was run: as §1

[10] = system: blackgrass (Alopecurus myosuroides); assay: Test A postemergence; details: postemergence
How it was run: as §1

[11] = system: corn (Zea mays); assay: Test A postemergence; details: postemergence
How it was run: as §1

[12] = system: giant foxtail (Setaria faberii); assay: Test A postemergence; details: postemergence
How it was run: as §1

[13] = system: pigweed (Amaranthus retroflexus); assay: Test A postemergence; details: postemergence
How it was run: as §1

[14] = system: ragweed (common ragweed, Ambrosia elatior); assay: Test A postemergence; details: postemergence
How it was run: as §1

[15] = system: ryegrass, Italian (Italian ryegrass, Lolium multiflorum); assay: Test A postemergence; details: postemergence
How it was run: as §1

[16] = system: wheat (Triticum aestivum); assay: Test A postemergence; details: postemergence
How it was run: as §1

[17] = system: barnyardgrass (Echinochloa crus-galli); assay: Test B flooded paddy test; details: Flood, 500 g ai/ha; 0 to 100 scale where 0 is no effect and 100 is complete control; 13 to 15 d
How it was run: (§2)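 Evaluation by eye, against controls, occurred 13–15 d post-treatment in a greenhouse, using a 0 (no effect) to 100 (complete control) scale. Application was into the paddy water, 3 cm deep over the soil, on 2-leaf plants.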

[18] = system: ducksalad (Heteranthera limosa); assay: Test B flooded paddy test; details: Flood, 500 g ai/ha; 0 to 100 scale where 0 is no effect and 100 is complete control; 13 to 15 d
How it was run: as §2

[19] = system: rice (Oryra sativa); assay: Test B flooded paddy test; details: Flood, 500 g ai/ha; 0 to 100 scale where 0 is no effect and 100 is complete control; 13 to 15 d
How it was run: as §2

[20] = system: sedge, umbrella (small-flower umbrella sedge, Cyperus difformis); assay: Test B flooded paddy test; details: Flood, 500 g ai/ha; 0 to 100 scale where 0 is no effect and 100 is complete control; 13 to 15 d
How it was run: as §2

[21] = 125 g ai/ha, Preemergence, visual injury after approximately 10 d, 0 to 100 scale where 0 is no effect and 100 is complete control
[22] = 500 g ai/ha, preemergence, 0 to 100 scale, 0 = no effect, 100 = complete control
[23] = 125 g ai/ha, visual rating after approx. 10 d, 0 to 100 scale (0 no effect, 100 complete control)
[24] = 500 g ai/ha, visual injury, 0 to 100 scale (0 no effect, 100 complete control), approx. 10 d
[25] = 125 g ai/ha, preemergence, 0 to 100 scale (0 no effect, 100 complete control)
[26] = Preemergence, 500 g ai/ha, visual injury approx. 10 d
[27] = 125 g ai/ha, visual injury rating on 0 to 100 scale (0 no effect, 100 complete control), approx. 10 d
[28] = 500 g ai/ha, 0 to 100 scale, 0 no effect, 100 complete control

Compound: O=C1NCC(c2cccc(C(F)(F)F)c2)C1C(=O)Nc1ccc(F)cc1Cl (racemic) [Compound 676]
- Plant response rating, Kochia [1, 21]: 0
- Plant response rating, Kochia [1, 22]: 0
- Plant response rating, Barnyardgrass [2, 21]: 70
- Plant response rating, Barnyardgrass [2, 22]: 90
- Plant response rating, Foxtail, Giant [3, 21]: 80
- Plant response rating, Foxtail, Giant [3, 22]: 90
- Plant response rating, Pigweed [4, 21]: 0
- Plant response rating, Pigweed [4, 22]: 0
- Plant response rating, Ragweed [5, 21]: 0
- Plant response rating, Ragweed [5, 22]: 0
- Plant response rating, Ryegrass, Italian [6, 21]: 0
- Plant response rating, Ryegrass, Italian [6, 22]: 20
- Plant response rating, Galium [7, 23]: 0
- Plant response rating, Galium [7, 24]: 40
- Plant response rating, Kochia [8, 23]: 0
- Plant response rating, Kochia [8, 24]: 0
- Plant response rating, Barnyardgrass [9, 23]: 50
- Plant response rating, Barnyardgrass [9, 24]: 80
- Plant response rating, Blackgrass [10, 23]: 20
- Plant response rating, Blackgrass [10, 24]: 40
- Plant response rating, Corn [11, 23]: 0
- Plant response rating, Corn [11, 24]: 50
- Plant response rating, Foxtail, Giant [12, 23]: 20
- Plant response rating, Foxtail, Giant [12, 24]: 80
- Plant response rating, Pigweed [13, 23]: 0
- Plant response rating, Pigweed [13, 24]: 0
- Plant response rating, Ragweed [14, 23]: 0
- Plant response rating, Ragweed [14, 24]: 0
- Plant response rating, Ryegrass, Italian [15, 23]: 0
- Plant response rating, Ryegrass, Italian [15, 24]: 20
- Plant response rating, Wheat [16, 23]: 0
- Plant response rating, Wheat [16, 24]: 20
- Plant response rating, Barnyardgrass [17]: 80
- Plant response rating, Ducksalad [18]: 85
- Plant response rating, Rice [19]: 15
- Plant response rating, Sedge, Umbrella [20]: 0

Compound: COc1cccc(NC(=O)C2C(=O)NCC2c2ccc(F)c(F)c2)c1F (stereo not drawn) [Compound 416]
- Plant response rating, Kochia [1, 25]: 0
- Kochia plant response rating (0 to 100 scale, 0 is no effect, 100 is complete control) [1, 26]: 0
- Plant response rating, Barnyardgrass [2, 25]: 0
- Barnyardgrass plant response rating (0 to 100 scale, 0 is no effect, 100 is complete control) [2, 26]: 0
- Plant response rating, Foxtail, Giant [3, 25]: 0
- Foxtail, Giant plant response rating (0 to 100 scale, 0 is no effect, 100 is complete control) [3, 26]: 50
- Plant response rating, Pigweed [4, 25]: 0
- Pigweed plant response rating (0 to 100 scale, 0 is no effect, 100 is complete control) [4, 26]: 0
- Plant response rating, Ragweed [5, 25]: 0
- Ragweed plant response rating (0 to 100 scale, 0 is no effect, 100 is complete control) [5, 26]: 0
- Plant response rating, Ryegrass, Italian [6, 25]: 0
- Ryegrass, Italian plant response rating (0 to 100 scale, 0 is no effect, 100 is complete control) [6, 26]: 0
- Galium plant response rating [7, 27]: 0
- Plant response rating, Galium [7, 28]: 0
- Kochia plant response rating [8, 27]: 0
- Plant response rating, Kochia [8, 28]: 0
- Barnyardgrass plant response rating [9, 27]: 0
- Plant response rating, Barnyardgrass [9, 28]: 0
- Blackgrass plant response rating [10, 27]: 0
- Plant response rating, Blackgrass [10, 28]: 0
- Corn plant response rating [11, 27]: 0
- Plant response rating, Corn [11, 28]: 0
- Foxtail, Giant plant response rating [12, 27]: 0
- Plant response rating, Foxtail, Giant [12, 28]: 0
- Pigweed plant response rating [13, 27]: 0
- Plant response rating, Pigweed [13, 28]: 0
- Ragweed plant response rating [14, 27]: 0
- Plant response rating, Ragweed [14, 28]: 0
- Ryegrass, Italian plant response rating [15, 27]: 0
- Plant response rating, Ryegrass, Italian [15, 28]: 0
- Wheat plant response rating [16, 27]: 0
- Plant response rating, Wheat [16, 28]: 0
- Plant response rating, Barnyardgrass [17]: 0
- Plant response rating, Ducksalad [18]: 50
- Plant response rating, Rice [19]: 15
- Plant response rating, Sedge, Umbrella [20]: 0
